One series relates to Fmr1 KO mouse. Briefly: Audiogenic seizures (AGS) in Fmr1 KO and WT mice.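 On all read-outs here: male WT and Fmr1 KO littermates aged P17-25 given a 2 min seizure-provoking stimulus, scored blind to genotype for wild running, clonic and tonic seizures and death.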 The settings on record: for incidence of AGS: Example 1, vehicle KO 73%; for incidence of AGS / Clonic seizure incidence / Death incidence / Tonic seizure incidence / WR (wild running) incidence: i.p. 100 mg/kg SL 327 or 30 mg/kg Formula I; for Clonic seizure incidence / Death incidence / Tonic seizure incidence / WR (wild running) incidence: 1 h before stimulus; for AGS incidence: 1 h, vehicle KO about 74%.

Series [1] relates to protein synthesis in WT and Fmr1 KO hippocampal slices. The experiment in a line: Protein synthesis in hippocampal slices (35S-Met/Cys metabolic labeling). It counts as cell-based, mouse. How it is done:
Dorsal hippocampal slices were prepared from juvenile (postnatal day 25-32) WT and Fmr1 KO mice using the same metabolic labeling procedure described in [35]. Briefly, 500 μm slices were recovered in carbogenating, 32.5° C. ACSF (in mM: NaCl: 124, KCl: 3, NaH2PO4: 1.25, NaHCO3: 26, dextrose: 10, MgCl2: 1, CaCl2: 2, saturated with 95% O2 and 5% CO2), pre-incubated in actinomycin D (ActD, 25 μM) for 30 min to prevent transcription, and protein synthesis measured over 30 minutes via incorporation of a ^35S-labeled methionine/cysteine mix (^35S-Met/Cys).
Group I mGluR activate several signal pathways.
Mice: Fmr1 KO (Jackson Labs) and WT littermates, bred on the C57BL6 or FVB background strains, were group housed and maintained in a 12:12 h light:dark cycle. An In vitro hippocampal slice assay was used herein to recapitulate the exaggerated protein synthesis phenotype seen in the Fmr1 KO[6].
Metabolic labeling: Experiments were performed on male WT and Fmr1 KO mice (postnatal day 25-32), blind to genotype, as described herein. Briefly, 500 μm slices were recovered for 4 h in 32.5° C. […] After labeling, slices were homogenized, and labeled proteins isolated by TCA precipitation. Samples were read with a scintillation counter and also subjected to a protein concentration assay (BIO-RAD). Final data were expressed as counts per minute (CPM) per μg protein, normalized to the ^35S-Met/Cys ACSF used for incubation, and the average incorporation of all samples analyzed in that experiment.

A further series concerns Ras. Briefly: Ras activation assay (Ras-GTP pull-down) in hippocampal slices. Type of series: cell-based, mouse. How it is done: Ras activation assay: Slices (4-6 per animal) were prepared exactly as for metabolic labeling, and Ras-GTP isolated using the Active Ras Pull-Down and Detection kit (PIERCE) according to manufacturer's instructions.
Active (GTP-bound) Ras was isolated from homogenized slices using a GST-pull down assay, and compared to total Ras.

A further series has as its system ERK1/2. Briefly: ERK1/2 activation (phosphorylation) in hippocampal slices, immunoblotting. It counts as cell-based, mouse. The settings on record: for ERK1/2 activation (phosphorylation; WT veh = 100%): 1 hour. On the technique in general: A western blot detects proteins with antibodies after separation by electrophoresis.
The subject of series [2] is Rat carrageenan paw edema. Conditions: PO, once; cited from earlier work.
Another series concerns MEK. The settings on record: read-out: MEK Enzyme IC50; cited from earlier work.
A further series relates to 25 receptors. Conditions: cited from earlier work.
Series [3] relates to Cytochrome p450 (5 major isoforms). Conditions: read-out: Cytochrome p450 Inhibition-IC50; cited from earlier work.
For the next series, the system named is IL-1β. The settings on record: human whole blood, TPA-induced; cited from earlier work.
Series [4] relates to rat adjuvant-induced arthritis. The settings on record: PO, QD×7; cited from earlier work.
The next series deals with ~200 other kinases. The settings on record: ~200 other kinases at 1 μM; cited from earlier work.
Another series relates to TNF-α. The settings on record: human whole blood, TPA-induced; cited from earlier work.
Series [5] concerns Rat Collagen-Induced Arthritis. The settings on record: PO, QD×7; cited from earlier work.
For another series, the system named is Malme-3M pERK. Conditions: Malme-3M cells; cited from earlier work.
The subject of a further series is IL-6. Conditions: human whole blood, TPA-induced; cited from earlier work.
[6] abbreviates: Fmr1 KO hippocampal slices, 100 μM Formula I in lactone form (Example 1).
[7] abbreviates: Fmr1 KO hippocampal slices, 100 μM Formula I in lactone form (Example 1), listed as LOVASTATIN
The mark [8] stands for this setting: Fmr1 KO mice, C57BL6, 30 mg/kg Formula I acid i.p.
Setting [9] is: Fmr1 KO hippocampal slices, 10 μM Formula I.
Setting [10] is: Fmr1 KO hippocampal slices, 50 μM Formula I.
Setting [11] is: WT hippocampal slices, 10 μM Formula I.
The mark [12] stands for this setting: WT hippocampal slices, 50 μM Formula I.
Setting [13] is: WT hippocampal slices, 5 μM U0126.

Each structure is given as a SMILES string. Entries after “also recorded” stand apart in the source; their conditions may differ. Marks after values point to notes of the source that are not given here.

Procedure for Fmr1 KO mouse: One hour later, mice were exposed to a seizure-inducing stimulus for 2 minutes, and scored for four stages of AGS: wild running (WR; pronounced, undirected running and thrashing), clonic seizure (violent spasms accompanied by loss of balance), tonic seizure (postural rigidity in limbs), and death [35, 37, 39]. All animals were injected and scored blind to genotype.
AGS: Experiments were performed using male WT and Fmr1 KO littermates (P17-25) as described herein. […] Immediately prior to testing, mice were transferred to a quiet (about <60 dB ambient sound) room for 1 hour. Mice were then transferred to a transparent plastic test chamber and, after 1 minute of habituation, exposed to a 130 dB stimulus (recorded sampling of a modified personal alarm, RADIOSHACK model 49-1010) for about 2 minutes. Each testing session contained mice from both genotype and treatment groups. For each group, incidence of the following stages of AGS was calculated: wild running (WR; pronounced, undirected running and thRashing), clonic seizure (violent spasms accompanied by loss of balance), tonic seizure (postural rigidity in limbs), and death. All aspects of the experiments were performed blind to genotype.
For each mouse, four stages of increasing AGS severity were scored: wild running, clonic seizure, tonic seizure, or death[16].

As to `N#C/C(=C(\N)Sc1ccc(N)cc1)c1ccccc1C(F)(F)F` [SL 327, alpha-[amino[(4-aminophenyl)thio]methylene]-2-(trifluoromethyl)benzeneacetonitrile], in the series on Fmr1 KO mouse (Fmr1 KO mice), the “incidence of AGS” value is given as 0%, the Clonic seizure incidence is reported as 0%*, the Death incidence is listed as 0% and the Tonic seizure incidence is listed as 0%*. Besides, the “WR (wild running) incidence” value in the series with Fmr1 KO mouse (Fmr1 KO mice) is 0%*. In the series on Fmr1 KO mouse (WT mice), the Clonic seizure incidence was found to be 0%*, the Death incidence came out at 0%, the Tonic seizure incidence is 0% and the “WR (wild running) incidence” value worked out at 0%*.

In the case of `CC[C@H](C)C(=O)O[C@H]1C[C@@H](C)C=C2C=C[C@H](C)[C@H](CC[C@@H]3C[C@@H](O)CC(=O)O3)[C@H]21` [Formula I, (1S,3R,7S,8S,8aR)-8-{2-[(2R,4R)-4-hydroxy-6-oxooxan-2-yl]ethyl}-3,7-dimethyl-1,2,3,7,8,8a-hexahydronaphthalen-1-yl-(2S)-2-methylbutanoate], the “protein synthesis (WT veh = 100%)” value in series [1] (Fmr1 KO hippocampal slices, 10 μM Formula I (acid form, Example 2)) came to 115±7%; in [1] (WT hippocampal slices, 10 μM Formula I (acid form, Example 2)), 103±4%; in series [1] (WT hippocampal slices, 50 μM Formula I (acid form, Example 2)) it was 88±5%. The “protein synthesis (WT vehicle = 100%)” value in series [1] (setting [6]) is 104±2%; in [1] (setting [7]), “can correct protein synthesis”. Besides, the “AGS severity (distribution of AGS scores)” value is “significantly lessens the severity of seizures” in the series with Fmr1 KO mouse (setting [8]); “significantly reduces AGS severity” in the series with Fmr1 KO mouse (Fmr1 KO mice, C57BL6, 30 mg/kg Formula I lactone i.p.); “attenuates AGS severity” with Fmr1 KO mouse (Fmr1 KO mice, C57BL6, 100 mg/kg Formula I acid i.p.); “significantly reduces AGS severity” in the series with Fmr1 KO mouse (Fmr1 KO mice, C57BL6, oral, 48 h feeding of 0.1% Formula I chow); “similarly unaffected; also recorded: does not significantly reduce AGS severity” with Fmr1 KO mouse (Fmr1 KO mice, FVB, 30 mg/kg Formula I i.p., 30 mg/kg); “significantly reduces AGS severity” with Fmr1 KO mouse (Fmr1 KO mice, FVB, 100 mg/kg Formula I i.p., 100 mg/kg). Also, in the series with Fmr1 KO mouse (setting [8]), the AGS incidence entry is reported as “about 28%”. For the same molecule, the “incidence of AGS” value in the series on Fmr1 KO mouse (Fmr1 KO mice) was 21%. For the same molecule, the Clonic seizure incidence in the series with Fmr1 KO mouse (Fmr1 KO mice) came to 12%*; in the series with Fmr1 KO mouse (WT mice) it was 8%*. Moreover, the Death incidence with Fmr1 KO mouse (Fmr1 KO mice) and with Fmr1 KO mouse (WT mice) was 8% in each case. For the same molecule, the Tonic seizure incidence with Fmr1 KO mouse (Fmr1 KO mice) stood at 6%*; with Fmr1 KO mouse (WT mice), 8%. Also, the “WR (wild running) incidence” value is 21%* in the series on Fmr1 KO mouse (Fmr1 KO mice) and 13%** in the series with Fmr1 KO mouse (WT mice). Further, the “active (GTP-bound) Ras compared to total Ras (WT veh = 100%)” value in the series on Ras (setting [9]) was 89±8%; in the series with Ras (setting [10]), 61±9%; in the series with Ras (setting [11]), 87±14%; with Ras (setting [12]), 61±12%. In addition, the “Ras activation in hippocampal slices (in words)” value in the series with Ras (hippocampal slices, Formula I acid form, FIGS. 2D and 2E) is on record as “inhibits Ras activation”. In addition, the “ERK1/2 activation (phosphorylation; WT veh = 100%)” value with ERK1/2 (setting [9]) was determined as 90±6%; in the series on ERK1/2 (setting [10]), 78±5%; in the series with ERK1/2 (setting [11]) it was 94±8%; in the series with ERK1/2 (setting [12]), 84±5%. The “ERK1/2 activation (WT vehicle = 100%)” value was 181±6% in the series with ERK1/2 (setting [6]); “reduce ERK1/2 activation” with ERK1/2 (setting [7]); 187±6% with ERK1/2 (WT hippocampal slices, 100 μM Formula I in lactone form (Example 1)). In addition, in the series with ERK1/2 (hippocampal slices, Formula I acid form, FIGS. 2F and 2G), the “ERK1/2 in hippocampal slices (in words)” value was “downregulates ERK1/2”.

For the molecule `Cc1cccc(C#Cc2ccccc2)n1` [MPEP], the “protein synthesis (WT vehicle = 100%)” value in series [1] (Fmr1 KO hippocampal slices, 50 μM MPEP, 5 minutes) is recorded as 95±2%; in [1] (WT hippocampal slices, 50 μM MPEP, 5 minutes), 104±2%.

As usually defined, the IC50 is the concentration at which inhibition is half-maximal. `Cn1cnc2c(F)c(Nc3ccc(Br)cc3F)c(C(=O)NOCCO)cc21` [ARRY-162]: the “Rat carrageenan paw edema ED50” value in series [2] is listed as roughly 7 mg/kg. Also, the IC50 with MEK was 12 nM; in [3] it was greater than 25000 nM; in the series with IL-1β, 21 nM; with TNF-α, 23 nM; in the series with Malme-3M pERK it was 11 nM; in the series on IL-6, 21 nM. Moreover, the receptor screen entry in the series with 25 receptors was “clean”. Also, the “rat adjuvant-induced arthritis ED50” value in series [4] was 10 mg/kg. The Kinase selectivity screen entry in the series with ~200 other kinases is “no activity”. In addition, the “Rat Collagen-Induced Arthritis ED50” value in series [5] is given as 3 mg/kg.

For the molecule `N#CC(=C(N)Sc1ccccc1N)C(C#N)=C(N)Sc1ccccc1N` [Formula U0126, 1,4-diamino-2,3-dicyano-1,4-bis[2-aminophenylthio]butadiene], in [1] (setting [13]), the “protein synthesis (WT vehicle = 100%)” value is listed as 94±6%. Moreover, in the series on ERK1/2 (setting [13]), the “ERK1/2 activation (WT vehicle = 100%)” value is 15±3%.

For the molecule `CCC(C)C(=O)OC1CC(C)C=C2C=CC(C)C(CCC(O)CC(O)CC(=O)[O-])C21.[Na+]` (stereo not drawn) [Formula I acid], in the series with Fmr1 KO mouse (setting [8]), the “AGS severity (distribution of AGS scores)” value is “attenuates AGS severity” and the AGS incidence result is on record as “significantly reduces AGS incidence”.

These data come from patent US20130225671A1, “Methods of Treating Seizure Disorders” (Massachusetts Institute of Technology, priority 2010, published 2013).
